Reference: ChEMBL document CHEMBL1133872, “Modelling studies of the active site of human sorbitol dehydrogenase: an approach to structure-based inhibitor design of the enzyme” (Bioorg Med Chem Lett, 2001)

Biological target: T1, Sorbitol dehydrogenase (Homo sapiens, UniProt Q00796)
T1 sequence (Q00796 whole entry): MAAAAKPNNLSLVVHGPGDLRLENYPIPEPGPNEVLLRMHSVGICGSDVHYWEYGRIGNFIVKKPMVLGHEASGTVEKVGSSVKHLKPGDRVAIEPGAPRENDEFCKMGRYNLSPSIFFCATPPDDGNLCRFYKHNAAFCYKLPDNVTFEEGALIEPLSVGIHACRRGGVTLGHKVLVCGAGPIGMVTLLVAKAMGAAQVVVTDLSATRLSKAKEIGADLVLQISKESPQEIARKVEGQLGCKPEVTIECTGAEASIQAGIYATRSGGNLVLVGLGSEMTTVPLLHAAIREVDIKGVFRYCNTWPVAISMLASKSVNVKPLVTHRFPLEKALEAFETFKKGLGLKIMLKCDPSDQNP
Test: Concentration required for inhibitory activity against human sorbitol dehydrogenase (SDH)

CN(C)S(=O)(=O)N1CCN(c2ccnc(CO)n2)CC1
IC50: 1 µM
